Laboratory results from BindingDB's records for doi:10.1016/0960-894X(94)00458-R (Tumor Biology Center, 1995).

Experiments:
[1] = The activity of cGPK, activated by cGMP, is measured by its ability to transfer phosphate from [gamma-32P]ATP to histone.
[2] = target: Myosin light chain kinase, smooth muscle (Gallus gallus, UniProt P11799); assay: MLCK assay; conditions: pH 7.2; 30 °C
Method: The activity of MLCK is measured by its ability to transfer 32P from [gamma-32P]ATP to myosin light-chain.

[3] = target: Tyrosine-protein phosphatase non-receptor type 2 (Mus musculus); assay: TPK assay
Method: The activity of TPK is measured by its ability to transfer 32P from [gamma-32P]ATP to Poly(Glu,Tyr; 4:l).

[4] = target: Protein kinase C beta type (Rattus norvegicus, UniProt P68403); assay: MLCK assay
Sequence of Protein kinase C beta type (P68403 whole entry): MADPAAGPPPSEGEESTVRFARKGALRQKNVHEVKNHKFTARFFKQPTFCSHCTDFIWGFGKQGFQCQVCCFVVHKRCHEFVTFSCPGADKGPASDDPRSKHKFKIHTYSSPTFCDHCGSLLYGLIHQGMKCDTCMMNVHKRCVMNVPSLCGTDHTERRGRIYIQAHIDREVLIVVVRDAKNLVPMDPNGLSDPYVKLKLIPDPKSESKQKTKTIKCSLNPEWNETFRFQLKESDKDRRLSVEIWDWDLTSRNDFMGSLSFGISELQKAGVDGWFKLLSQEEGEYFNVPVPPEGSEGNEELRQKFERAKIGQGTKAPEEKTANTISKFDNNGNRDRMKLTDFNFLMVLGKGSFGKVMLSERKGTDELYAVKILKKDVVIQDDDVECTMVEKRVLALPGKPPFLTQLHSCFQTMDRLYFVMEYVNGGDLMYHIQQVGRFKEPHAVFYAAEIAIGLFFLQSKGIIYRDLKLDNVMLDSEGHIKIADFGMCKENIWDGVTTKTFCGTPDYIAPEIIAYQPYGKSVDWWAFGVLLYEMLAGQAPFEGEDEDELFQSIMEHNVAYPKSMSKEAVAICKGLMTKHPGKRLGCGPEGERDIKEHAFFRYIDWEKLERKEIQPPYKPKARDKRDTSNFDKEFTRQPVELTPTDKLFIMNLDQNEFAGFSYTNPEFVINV

[5] = target: T1, cGMP-dependent protein kinase 1 (Bos taurus, UniProt P00516); assay: cGPK assay
T1 sequence (P00516 whole entry): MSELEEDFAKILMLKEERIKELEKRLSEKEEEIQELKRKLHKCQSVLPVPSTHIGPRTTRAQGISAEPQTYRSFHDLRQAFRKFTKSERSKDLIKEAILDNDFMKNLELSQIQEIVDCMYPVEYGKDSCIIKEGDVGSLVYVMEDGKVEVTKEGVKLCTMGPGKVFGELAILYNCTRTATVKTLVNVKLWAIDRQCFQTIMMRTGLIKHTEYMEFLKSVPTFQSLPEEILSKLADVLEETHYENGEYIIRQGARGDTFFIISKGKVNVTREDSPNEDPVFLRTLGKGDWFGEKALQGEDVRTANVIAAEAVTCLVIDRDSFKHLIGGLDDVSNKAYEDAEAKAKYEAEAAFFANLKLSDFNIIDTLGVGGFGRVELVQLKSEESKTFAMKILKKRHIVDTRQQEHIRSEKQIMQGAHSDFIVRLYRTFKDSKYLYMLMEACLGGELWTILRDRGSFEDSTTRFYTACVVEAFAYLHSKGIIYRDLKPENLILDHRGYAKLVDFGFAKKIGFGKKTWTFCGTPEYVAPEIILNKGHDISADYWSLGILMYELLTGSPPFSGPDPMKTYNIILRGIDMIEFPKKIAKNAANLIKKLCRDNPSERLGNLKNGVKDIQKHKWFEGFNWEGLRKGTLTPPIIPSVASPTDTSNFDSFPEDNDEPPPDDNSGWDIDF
Method: The activity of cGPK, activated by cGMP, is measured by its ability to transfer phosphate from [gamma-32P]ATP to histone.

[6] = target: cAMP-dependent protein kinase catalytic subunit alpha (Bos taurus, UniProt P00517); assay: PKA assay
Method: The activity of PKA, activated by cAMP, is measured by its ability to transfer phosphate from [gamma-32P]ATP to histone.

Sequence of Myosin light chain kinase, smooth muscle (P11799 whole entry): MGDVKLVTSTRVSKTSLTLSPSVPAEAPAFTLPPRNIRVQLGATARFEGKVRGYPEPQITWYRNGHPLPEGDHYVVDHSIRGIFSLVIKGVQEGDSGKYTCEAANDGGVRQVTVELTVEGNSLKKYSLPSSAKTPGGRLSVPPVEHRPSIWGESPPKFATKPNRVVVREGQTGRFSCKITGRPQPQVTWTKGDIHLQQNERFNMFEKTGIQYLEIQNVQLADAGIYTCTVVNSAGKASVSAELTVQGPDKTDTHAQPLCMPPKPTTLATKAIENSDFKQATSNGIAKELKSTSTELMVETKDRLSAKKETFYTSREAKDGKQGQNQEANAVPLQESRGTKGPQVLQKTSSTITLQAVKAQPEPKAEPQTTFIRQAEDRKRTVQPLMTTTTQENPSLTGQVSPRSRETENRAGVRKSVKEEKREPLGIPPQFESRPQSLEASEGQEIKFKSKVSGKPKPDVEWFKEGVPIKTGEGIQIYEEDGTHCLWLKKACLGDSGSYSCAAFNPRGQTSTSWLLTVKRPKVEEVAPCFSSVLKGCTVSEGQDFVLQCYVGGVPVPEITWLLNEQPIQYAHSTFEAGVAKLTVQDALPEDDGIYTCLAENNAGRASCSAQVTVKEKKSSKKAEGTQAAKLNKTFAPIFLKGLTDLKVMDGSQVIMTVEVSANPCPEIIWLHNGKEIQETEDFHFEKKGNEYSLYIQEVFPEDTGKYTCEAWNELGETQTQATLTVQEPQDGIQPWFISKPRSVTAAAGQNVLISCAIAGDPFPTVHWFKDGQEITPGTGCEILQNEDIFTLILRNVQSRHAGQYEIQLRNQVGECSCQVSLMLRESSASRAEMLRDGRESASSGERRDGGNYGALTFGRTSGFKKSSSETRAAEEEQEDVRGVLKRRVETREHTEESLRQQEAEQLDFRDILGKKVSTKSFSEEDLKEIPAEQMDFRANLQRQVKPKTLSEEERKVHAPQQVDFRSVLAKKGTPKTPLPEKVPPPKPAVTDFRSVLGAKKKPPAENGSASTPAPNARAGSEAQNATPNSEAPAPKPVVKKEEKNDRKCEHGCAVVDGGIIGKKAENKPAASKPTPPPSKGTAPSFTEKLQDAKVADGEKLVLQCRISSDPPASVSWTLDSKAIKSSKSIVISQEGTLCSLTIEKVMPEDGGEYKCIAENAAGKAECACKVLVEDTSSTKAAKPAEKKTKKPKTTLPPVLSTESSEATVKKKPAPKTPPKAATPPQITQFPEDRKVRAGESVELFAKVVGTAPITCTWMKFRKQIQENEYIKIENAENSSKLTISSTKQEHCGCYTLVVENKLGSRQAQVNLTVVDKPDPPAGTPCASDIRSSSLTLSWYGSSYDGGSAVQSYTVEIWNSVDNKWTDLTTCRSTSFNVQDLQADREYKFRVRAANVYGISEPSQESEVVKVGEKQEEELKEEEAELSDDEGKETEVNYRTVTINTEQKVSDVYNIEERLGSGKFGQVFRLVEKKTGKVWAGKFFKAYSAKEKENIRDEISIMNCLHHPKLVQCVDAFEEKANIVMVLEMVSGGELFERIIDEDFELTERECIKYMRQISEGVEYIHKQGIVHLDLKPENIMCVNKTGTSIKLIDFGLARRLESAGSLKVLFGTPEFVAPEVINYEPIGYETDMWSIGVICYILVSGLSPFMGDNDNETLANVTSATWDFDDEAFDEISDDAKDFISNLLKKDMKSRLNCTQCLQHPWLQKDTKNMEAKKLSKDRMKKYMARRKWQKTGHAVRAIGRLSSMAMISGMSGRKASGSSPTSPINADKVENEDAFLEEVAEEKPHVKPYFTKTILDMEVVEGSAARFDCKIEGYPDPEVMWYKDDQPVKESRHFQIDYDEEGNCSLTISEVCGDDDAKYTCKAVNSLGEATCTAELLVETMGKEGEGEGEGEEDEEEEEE

Question: Which IC50 [1] does the source give for `COc1ccc2c(c1)c1c3c(c4c5ccccc5n(C)c4c1n2CCCC#N)C(=O)NC3=O` [3-(9-methoxy-13-methyl-5,7-dioxo-6,7,12,13-tetrahydro-5H-indolo[2,3-a]pyrrolo[3,4-c]carbazol-12-yl)propyl cyanide] here?
Answer: 32 nM

Question: Which IC50 [2] does the source give for `Cn1c2ccc(O)cc2c2c3c(c4c5cc(O)ccc5n(CCC#N)c4c21)CNC3=O` [3-{7,19-dihydroxy-23-methyl-14-oxo-3,13,23-triazahexacyclo[14.7.0.0^{2,10}.0^{4,9}.0^{11,15}.0^{17,22}]tricosa-1(16),2(10),4(9),5,7,11(15),17,19,21-nonaen-3-yl}propanenitrile] here?
Answer: 30 nM

Question: And the IC50 [1]?
Answer: 30 nM

Question: Which IC50 [1] does the source give for `COc1ccc2c(c1)c1c3c(c4c5cc(OC)ccc5n(CCC#N)c4c1n2C)C(=O)NC3=O` [3-{7,19-dimethoxy-23-methyl-12,14-dioxo-3,13,23-triazahexacyclo[14.7.0.0^{2,10}.0^{4,9}.0^{11,15}.0^{17,22}]tricosa-1(16),2(10),4(9),5,7,11(15),17,19,21-nonaen-3-yl}propanenitrile] here?
Answer: 180 nM

Question: Which results are given for `COc1ccc2c(c1)c1c3c(c4c5cc(OC)ccc5n(CCC#N)c4c1n2C)CNC3=O` [3-{7,19-dimethoxy-23-methyl-14-oxo-3,13,23-triazahexacyclo[14.7.0.0^{2,10}.0^{4,9}.0^{11,15}.0^{17,22}]tricosa-1(16),2(10),4(9),5,7,11(15),17,19,21-nonaen-3-yl}propanenitrile]?
Answer: IC50 [3]: > 10000 nM; IC50 [2]: 1600 nM; IC50 [1]: 1600 nM

Question: What does the source list for `COc1ccc2c(c1)c1c3c(c4c5ccccc5n(C)c4c1n2CCC#N)C(=O)NC3=O` [3-{7-methoxy-23-methyl-12,14-dioxo-3,13,23-triazahexacyclo[14.7.0.0^{2,10}.0^{4,9}.0^{11,15}.0^{17,22}]tricosa-1(16),2(10),4(9),5,7,11(15),17,19,21-nonaen-3-yl}propanenitrile]?
Answer: IC50 [2]: 49 nM; IC50 [4]: 16 nM; IC50 [1]: 200 nM

Question: With `COc1ccc2c(c1)c1c3c(c4c5ccccc5n(CCC#N)c4c1n2C)C(=O)NC3=O` [3-{19-methoxy-23-methyl-12,14-dioxo-3,13,23-triazahexacyclo[14.7.0.0^{2,10}.0^{4,9}.0^{11,15}.0^{17,22}]tricosa-1(16),2(10),4(9),5,7,11(15),17,19,21-nonaen-3-yl}propanenitrile] as the compound, how does the IC50 [3] read?
Answer: > 10000 nM

Question: What about the IC50 [5] of the same compound?
Answer: > 3000 nM

Question: And the IC50 [2]?
Answer: 200 nM

Question: And the IC50 [4]?
Answer: 2 nM

Question: What about the IC50 [1] of the same compound?
Answer: 49 nM

Question: And the IC50 [6]?
Answer: 400 nM

Question: What does the source list for `Cn1c2ccccc2c2c3c(c4c5ccccc5n(CCC#N)c4c21)C(=O)NC3=O` [3-{23-methyl-12,14-dioxo-3,13,23-triazahexacyclo[14.7.0.0^{2,10}.0^{4,9}.0^{11,15}.0^{17,22}]tricosa-1(16),2(10),4(9),5,7,11(15),17,19,21-nonaen-3-yl}propanenitrile]?
Answer: IC50 [1]: 55 nM; IC50 [6]: > 30000 nM

Question: With `COc1ccc2c(c1)c1c3c(c4c5ccccc5n(CCCC#N)c4c1n2C)C(=O)NC3=O` [4-{19-methoxy-23-methyl-12,14-dioxo-3,13,23-triazahexacyclo[14.7.0.0^{2,10}.0^{4,9}.0^{11,15}.0^{17,22}]tricosa-1(16),2(10),4(9),5,7,11(15),17,19,21-nonaen-3-yl}butanenitrile] as the compound, how does the IC50 [5] read?
Answer: 1000 nM

Question: And the IC50 [2]?
Answer: 32 nM

Question: What about the IC50 [4] of the same compound?
Answer: 5 nM

Question: And the IC50 [6]?
Answer: 200 nM

Question: With `COc1ccc2c(c1)c1c3c(c4c5ccccc5n(C)c4c1n2CC(O)CN(C)C)C(=O)NC3` (stereo unspecified) [12-(3-dimethylamino-2-hydroxypropyl)-9-methoxy-13-methyl-6,7,12,13-tetrahydro-5H-indolo[2,3-a]pyrrolo[3,4-c]carbazol-5-one] as the compound, how does the IC50 [1] read?
Answer: 9200 nM

Question: For `COc1ccc2c(c1)c1c3c(c4c5ccccc5n(C)c4c1n2CC(O)CN(C)C)C(=O)NC3=O` (stereo unspecified) [13-(3-dimethylamino-2-hydroxypropyl)-3-methoxy-12-methyl-6,7,12,13-tetrahydro-5H-indolo[2,3-a]pyrrolo[3,4-c]carbazole-5,7-dione], which IC50 [1] is on record?
Answer: 120 nM

Question: With `Cn1c2ccccc2c2c3c(c4c5ccccc5n(CCCN)c4c21)CNC3=O` [23-(3-aminopropyl)-3-methyl-3,13,23-triazahexacyclo[14.7.0.0^{2,10}.0^{4,9}.0^{11,15}.0^{17,22}]tricosa-1(16),2(10),4,6,8,11(15),17(22),18,20-nonaen-12-one] as the compound, how does the IC50 [2] read?
Answer: 18 nM

Question: What about the IC50 [1] of the same compound?
Answer: 18 nM

Question: For `CN(C)CC(O)Cn1c2ccccc2c2c3c(c4c5ccccc5n(C)c4c21)C(=O)NC3=O` (stereo unspecified) [23-[3-(dimethylamino)-2-hydroxypropyl]-3-methyl-3,13,23-triazahexacyclo[14.7.0.0^{2,10}.0^{4,9}.0^{11,15}.0^{17,22}]tricosa-1(16),2(10),4,6,8,11(15),17(22),18,20-nonaene-12,14-dione], which IC50 [2] is on record?
Answer: 120 nM

Question: What about the IC50 [1] of the same compound?
Answer: 120 nM

Question: With `COc1ccc2c(c1)c1c3c(c4c5ccccc5n(CC(O)CN(C)C)c4c1n2C)CNC3=O` (stereo unspecified) [23-[3-(dimethylamino)-2-hydroxypropyl]-7-methoxy-3-methyl-3,13,23-triazahexacyclo[14.7.0.0^{2,10}.0^{4,9}.0^{11,15}.0^{17,22}]tricosa-1(16),2(10),4,6,8,11(15),17(22),18,20-nonaen-12-one] as the compound, how does the IC50 [3] read?
Answer: > 10000 nM

Question: And the IC50 [5]?
Answer: 23000 nM

Question: What about the IC50 [2] of the same compound?
Answer: 9200 nM

Question: What about the IC50 [4] of the same compound?
Answer: 86 nM

Question: And the IC50 [6]?
Answer: 15000 nM

Question: What does the source list for `COc1ccc2c(c1)c1c3c(c4c5ccccc5n(CC(O)CN(C)C)c4c1n2C)C(=O)NC3=O` (stereo unspecified) [23-[3-(dimethylamino)-2-hydroxypropyl]-7-methoxy-3-methyl-3,13,23-triazahexacyclo[14.7.0.0^{2,10}.0^{4,9}.0^{11,15}.0^{17,22}]tricosa-1(16),2(10),4,6,8,11(15),17(22),18,20-nonaene-12,14-dione]?
Answer: IC50 [5]: 4800 nM; IC50 [2]: 120 nM; IC50 [4]: 4 nM; IC50 [6]: 510 nM

Question: With `CN(C)CCCn1c2ccccc2c2c3c(c4c5ccccc5[nH]c4c21)C(=O)NC3` [23-[3-(dimethylamino)propyl]-3,13,23-triazahexacyclo[14.7.0.0^{2,10}.0^{4,9}.0^{11,15}.0^{17,22}]tricosa-1(16),2(10),4,6,8,11(15),17(22),18,20-nonaen-12-one] as the compound, how does the IC50 [2] read?
Answer: 390 nM

Question: What about the IC50 [1] of the same compound?
Answer: 390 nM

Question: And the IC50 [6]?
Answer: > 10000 nM

Question: Which IC50 [2] does the source give for `CN(C)CCCn1c2ccccc2c2c3c(c4c5ccccc5n(C)c4c21)C(=O)NC3` [23-[3-(dimethylamino)propyl]-3-methyl-3,13,23-triazahexacyclo[14.7.0.0^{2,10}.0^{4,9}.0^{11,15}.0^{17,22}]tricosa-1(16),2(10),4,6,8,11(15),17(22),18,20-nonaen-12-one] here?
Answer: 250 nM

Question: And the IC50 [1]?
Answer: 250 nM

Question: Which IC50 [2] does the source give for `CN(C)CCCn1c2ccc(O)cc2c2c3c(c4c5cc(O)ccc5[nH]c4c21)C(=O)NC3` [23-[3-(dimethylamino)propyl]-7,19-dihydroxy-3,13,23-triazahexacyclo[14.7.0.0^{2,10}.0^{4,9}.0^{11,15}.0^{17,22}]tricosa-1(16),2(10),4,6,8,11(15),17(22),18,20-nonaen-12-one] here?
Answer: 31 nM

Question: And the IC50 [1]?
Answer: 310 nM

Question: With `COc1ccc2[nH]c3c(c4c(c5c6cc(OC)ccc6n(CCCN(C)C)c35)CNC4=O)c2c1` [23-[3-(dimethylamino)propyl]-7,19-dimethoxy-3,13,23-triazahexacyclo[14.7.0.0^{2,10}.0^{4,9}.0^{11,15}.0^{17,22}]tricosa-1(16),2(10),4,6,8,11(15),17(22),18,20-nonaen-12-one] as the compound, how does the IC50 [2] read?
Answer: 220 nM

Question: What about the IC50 [1] of the same compound?
Answer: 220 nM

Question: What does the source list for `CN(C)CC(O)Cn1c2ccccc2c2c3c(c4c5ccccc5n(C)c4c21)C(=O)NC3` (stereo unspecified) [Indolocarbazole deriv.]?
Answer: IC50 [3]: > 100000 nM; IC50 [2]: 5500 nM; IC50 [1]: 5500 nM

Question: With `Cn1c2ccccc2c2c3c(c4c5ccccc5n(CCC#N)c4c21)CNC3=O` [Indolocarbazole deriv.] as the compound, how does the IC50 [3] read?
Answer: > 10000 nM

Question: What about the IC50 [1] of the same compound?
Answer: 5800 nM
